Read-outs that look alike come from different tables or passages of the source.

The subject of test [1] is P. falciparum 3D7 or K1. Kind of test: Asexual Blood Stage Imaging Assay (DAPI) V. Avery. The test is classed as cell-based.
Test [2] deals with P. falciparum Dd2. The test can be described thus: Malaria Sybr Green I Fluorescence assay Dd2 Horrocks. In kind it is cell-based. The conditions noted are these: Plasmodium falciparum, DD2, 48 h; read-out: P. falciparum Dd2 asexual blood stage EC50 Horrocks. On the procedure: Column S: Horrocks group (data presented first in this paper). Asexual Dd2 inhibition of growth (IC50s): IC50 for the Dd2 clone of Plasmodium falciparum were determined using the Malaria Sybr Green I Fluorescence assay. Drug assays were initiated using a 2% trophozoite stage parasitaemia and 2% hematocrit and fluorescence measured after 48 h as fully described in Hasenkamp et al.[53]. Log dose-response curves were plotted in GraphPad Prism (v5.0). The controls for Dd2 using our 48hr Sybr Green I assay were (rounded to nearest nM): Chloroquine 209nM, Mefloquine 11nM, Quinine 246nM, Dihydroartemisinin 4nM, Artemether 10nM, Atovaquone 3nM.

Test [3] relates to P. falciparum. The test can be described thus: EC50 listed in S2 Table Metabolomics (used to set the concentration tested). In kind it is cell-based. The conditions noted are these: Plasmodium falciparum, read-out: EC50_nM.
In test [4] the test system is bovine Babesia and equine Babesia and Theileria parasites. The test can be described thus: Babesia and Theileria fluorescence-based assay, all four species. The test is classed as cell-based, B. bovis, B. bigemina, T. equi, B. caballi.
The subject of test [5] is P. falciparum 3D7 trophozoites. Kind of test: Metabolomic fingerprint profiling LC-MS. The test is classed as cell-based, Plasmodium falciparum.
In test [6] the test system is HIV-1 JR-FL or HIV-1 NL4-3 pseudoviruses. The test can be described thus: HIV-1 pseudovirus infection luciferase. The test is classed as cell-based. The conditions noted are these: 10µM. The method, then:
(§1) Columns FK-GB, Moore group (data presented first in this paper). HIV and HIV-producing cell lines, toxicity and viral suppression. […] MMV compounds were incubated with HIV-1 JR-FL or HIV-1 NL4-3 pseudoviruses and U87-CD4-CCR5 or U87-CD4-CXCR4 cells (obtained through the NIH AIDS Reagent Program, Division of AIDS, NIAID, NIH: U87 CD4+CCR5+ Cells from Dr. HongKui Deng and Dr. Dan R. Littman) respectively for 3 days. Cells were assayed for infection by luciferase production (Bright-Glo Luciferase Substrate, Promega) and cell viability by MTT assay. […] MMV compounds were next incubated with HIV-1 JR-FL or HIV-1 NL4-3 viruses and U87-CD4-CCR5 or U87-CD4-CXCR4 cells respectively for 7 days. Cell supernatants were assayed for viral production by p24 ELISA [153] and cell viability by MTT assay. […] DMSO (5%) was completely toxic to all cells (based on visual inspection) and served as the positive control for MTT assays.

Test [7] has as its system HIV-1 JR-FL or HIV-1 NL4-3 viruses. The test can be described thus: HIV-1 viral production p24 ELISA. Particulars: 10µM. In kind it is cell-based. On the procedure: as §1
A general note: In an ELISA, binding on a coated surface is turned into a signal by an enzyme label.

The test system of test [8] is P. falciparum HB3. Kind of test: Stage-specificity / mitochondrial integrity image assay Ayong. The test is classed as cell-based. The conditions noted are these: 10µM.
In test [9] the test system is P. falciparum NF54 GFP-Pfs16 gametocytes stage IV-V. Particulars: ref [71]; cited from earlier work.
Test [10] relates to P. falciparum NF54 GFP-Pfs16 gametocytes stage I-III. The conditions noted are these: ref [71]; cited from earlier work.
Test [11] deals with Chromera velia. Kind of test: Chromera velia flagellation motility assay.
The mark [12] stands for this setting: metabolite level change after treatment.
Setting [13] is: Plasmodium falciparum, read-out: P. falciparum 3D7 asexual blood stage EC50 (Image) V. Avery.
Where [14] appears, read: Plasmodium falciparum, read-out: P. falciparum K1 asexual blood stage EC50 (Image) V. Avery.

For the molecule `CC[C@H](C)[C@H](NC(=O)[C@H]([C@@H](C)CC)N(C)C(C)=O)C(=O)N[C@H](C(=O)N[C@@H](CC(C)C)C(=O)[C@@]1(C)CO1)[C@@H](C)O` [epoxomicin], the EC50 was determined as 1 nM in test [1] (3D7, read-out: P. falciparum 3D7 asexual blood stage EC50 (Image) V. Avery) and 2 nM in test [1] (K1, read-out: P. falciparum K1 asexual blood stage EC50 (Image) V. Avery).
For `C=C[C@H]1C[N@@]2CC[C@H]1C[C@H]2[C@H](O)c1ccnc2ccc(OC)cc12` [Quinine], the EC50 in test [2] amounted to 246 nM.
Take `OC(c1cc(C(F)(F)F)nc2c(C(F)(F)F)cccc12)C1CCCCN1` (stereo not drawn) [Mefloquine]: the EC50 in test [2] was 11 nM.
Regarding `C[n+]1c2ccccc2nc2ccc(NCCO)cc21` [MMV396693], the EC50 in [3] was found to be 296 nM. Besides, in test [4], the “anti-Babesia and anti-Theileria hits, IC50 in words” value was “nanomolar IC50s”; the “mean selectivity indices (SI)” value is reported as “greater than 230”. For the same molecule, in test [4] (Babesia, read-out: IC50s for both bovine Babesia and equine Babesia and Theileria parasites), the IC50 lay in the range of 43 to 750 nM. Moreover, the Acetyllysine in [5] (S2 Table Metabolomics, metabolite Acetyllysine) was -0.1505. Moreover, the N-acetyl-L-ornithine in [5] (S2 Table Metabolomics, metabolite N-acetyl-L-ornithine) was -0.01449. Further, the N-carbamoyl-L-aspartate in [5] (S2 Table Metabolomics, metabolite N-carbamoyl-L-aspartate) is listed as 0.2036. Further, the NADPH in test [5] (S2 Table Metabolomics, metabolite NADPH) came out at 1.101. Further, in test [5] (S2 Table Metabolomics, metabolite dAMP), the dAMP was found to be 0.3768. In [5] (S2 Table Metabolomics, metabolite dCMP), the dCMP is -0.245. The dTDP in test [5] (S2 Table Metabolomics, metabolite dTDP) is on record as -0.2826. The dTMP in test [5] (S2 Table Metabolomics, metabolite dTMP) was -0.3704. For the same molecule, in test [5] (S2 Table Metabolomics, metabolite dTTP), the dTTP was 0.008069. In test [5] (S2 Table Metabolomics, metabolite dihydroorotate), the dihydroorotate was found to be 0.3914. The orotate in test [5] (S2 Table Metabolomics, metabolite orotate) is -0.3502. Besides, in [5] (S2 Table Metabolomics, peptide DLH), the DLH was determined as 0.01259. The DLS/SDL/SID in test [5] (S2 Table Metabolomics, peptide DLS/SDL/SID) is on record as 0.07661. Also, in test [5] (S2 Table Metabolomics, peptide PD), the PD is 0.009709. In [5] (S2 Table Metabolomics, peptide PEE), this molecule returned a PEE of -0.05476. Further, the PVNF in test [5] (S2 Table Metabolomics, peptide PVNF) is listed as 0.1478. The 3-phosphoglycerate in test [5] (metabolite 3-phosphoglycerate, S2 Table Metabolomics) was determined as 0.5809. For the same molecule, the ADP-D-glucose in test [5] (metabolite ADP-D-glucose, S2 Table Metabolomics) turned out to be 0.23. Also, the ATP in test [5] (metabolite ATP, S2 Table Metabolomics) was 0.04335. The CDP in test [5] (metabolite CDP, S2 Table Metabolomics, change in metabolite level after compound treatment) is listed as -0.06362. For the same molecule, the D-sedoheptulose-1/7-phosphate in test [5] (metabolite D-sedoheptulose-1/7-phosphate, S2 Table Metabolomics, change in metabolite level after compound treatment) was -0.05616. In test [5] (metabolite FAD, S2 Table Metabolomics), the FAD came to 0.2669. Also, the GMP in test [5] (metabolite GMP, S2 Table Metabolomics, change in metabolite level after compound treatment) came out at 0.08605. In addition, in test [5] (metabolite NAD+, S2 Table Metabolomics), the “NAD+” value is 0.2129. Besides, the “NADP+” value in test [5] (metabolite NADP+, S2 Table Metabolomics) was 0.2138. Also, the “Octoluse Bisphosphate” value in test [5] (metabolite Octoluse Bisphosphate, S2 Table Metabolomics, change in metabolite level after compound treatment) is on record as 0.3676. Moreover, in [5] (metabolite Pyroglutamic acid, S2 Table Metabolomics), the Pyroglutamic acid is on record as 0.1161. In addition, in [5] (metabolite UDP-D-glucose, S2 Table Metabolomics), the UDP-D-glucose was 0.1757. Further, in [5] (metabolite UDP-D-glucuronate, S2 Table Metabolomics), the UDP-D-glucuronate was found to be 0.2718. Besides, in test [5] (metabolite UDP-N-acetyl-glucosamine, S2 Table Metabolomics), the UDP-N-acetyl-glucosamine turned out to be 0.1832. The UDP in test [5] (metabolite UDP, S2 Table Metabolomics, change in metabolite level after compound treatment) is reported as -0.3369. Also, the UMP in test [5] (metabolite UMP, S2 Table Metabolomics, change in metabolite level after compound treatment) is reported as -0.448. Further, in test [5] (metabolite UTP, S2 Table Metabolomics, change in metabolite level after compound treatment), the UTP was 0.03764. In test [5] (metabolite a-ketoglutarate, S2 Table Metabolomics), the a-ketoglutarate was -0.1814. Besides, the citrate/isocitrate in test [5] (metabolite citrate/isocitrate, S2 Table Metabolomics, change in metabolite level after compound treatment) is 1.401. The cytidine in [5] (metabolite cytidine, S2 Table Metabolomics) is 0.9119. Further, in [5] (metabolite dATP, S2 Table Metabolomics), the dATP came out at 0.0739. Moreover, the dGMP/AMP in test [5] (metabolite dGMP/AMP, S2 Table Metabolomics, change in metabolite level after compound treatment) worked out at 0.007618. In addition, the fumarate in test [5] (metabolite fumarate, S2 Table Metabolomics, change in metabolite level after compound treatment) was 0.1883. In test [5] (metabolite glucose-1/6-phosphate, S2 Table Metabolomics, change in metabolite level after compound treatment), the glucose-1/6-phosphate is -0.01569. In addition, the glycerate in [5] (metabolite glycerate, S2 Table Metabolomics, change in metabolite level after compound treatment) is 0.2787. Also, in [5] (metabolite guanine, S2 Table Metabolomics, change in metabolite level after compound treatment), the guanine is 0.244. For the same molecule, the guanosine in test [5] (metabolite guanosine, S2 Table Metabolomics, change in metabolite level after compound treatment) is reported as 0.1378. Besides, the hypoxanthine in [5] (metabolite hypoxanthine, S2 Table Metabolomics) came to 0.1496. For the same molecule, the indole in test [5] (metabolite indole, S2 Table Metabolomics) worked out at 0.3367. Further, the inosine in test [5] (metabolite inosine, S2 Table Metabolomics, change in metabolite level after compound treatment) was 0.5603. In addition, in test [5] (setting [12]), the 2_3-Diphosphoglyceric acid is given as 0.305, the 4-phosphopantothenate was 0.02035, the 6-phospho-D-gluconate was 0.201 and the FMN came to 0.1776. Besides, in [5] (setting [12]), the IMP is listed as 0.1162, the Pyrophosphate is 0.4038, the Sedoheptoluse bisphosphate came out at 0.06738 and the cyclic-AMP was 0.09405. For the same molecule, in test [5] (setting [12]), the glutathione disulfide came to 0.1827, the lactate was determined as 0.3349 and the myo-inositol is recorded as -0.009161. Moreover, in test [5] (metabolite nicotinate, S2 Table Metabolomics), the nicotinate amounted to 0.1527. Also, the ornithine in [5] (metabolite ornithine, S2 Table Metabolomics) amounted to 0.2843. Besides, in test [5] (metabolite phosphoenolpyruvate, S2 Table Metabolomics), the phosphoenolpyruvate amounted to 0.01034. Also, the pyruvate in test [5] (metabolite pyruvate, S2 Table Metabolomics, change in metabolite level after compound treatment) is reported as -0.1004. Moreover, in test [5] (metabolite ribose-phosphate, S2 Table Metabolomics), the ribose-phosphate was found to be 0.7027. The sarcosine/alanine in [5] (metabolite sarcosine/alanine, S2 Table Metabolomics, change in metabolite level after compound treatment) turned out to be 0.6024. Further, in test [5] (metabolite sn-glycerol-3-phosphate, S2 Table Metabolomics), the sn-glycerol-3-phosphate is on record as 0.3061. Besides, the succinate/methylmalonic acid in test [5] (metabolite succinate/methylmalonic acid, S2 Table Metabolomics, change in metabolite level after compound treatment) is reported as 0.6812. Further, the uridine in [5] (metabolite uridine, S2 Table Metabolomics, change in metabolite level after compound treatment) is 0.1028. For the same molecule, the xanthosine in [5] (metabolite xanthosine, S2 Table Metabolomics, change in metabolite level after compound treatment) is given as 0.2966.
Turning to `Cc1cn([C@H]2C[C@H](N=[N+]=[N-])[C@@H](CO)O2)c(=O)[nH]c1=O` [AZT, reference compound], the “viral infection by luciferase, positive control” value in test [6] is “completely blocked viral infection”. For the same molecule, the “viral infection by p24 production, positive control” value in [7] is on record as “completely blocked viral infection”.
For the molecule `CC(=O)N[C@@H]1[C@@H](O)[C@H](O)[C@@H](CO)O[C@H]1O` [GlcNAC, N-acetylglucosamine, reference compound], in test [8], the “Effects on asexual life cycle progression (treatment at ER, LR, T, S; merozoites; mitochondrial integrity)” value is on record as “LR-o-o-o-X-o”.
Turning to `CO[C@H]1O[C@@H]2O[C@@]3(C)CC[C@H]4[C@H](C)CC[C@@H]([C@H]1C)[C@@]24OO3` [Artemether], the EC50 in test [2] worked out at 10 nM.
In the case of `CCc1nc(N)nc(N)c1-c1ccc(Cl)cc1` [pyrimethamine, reference compound], the “late gametocyte imaging, no activity at” value in test [9] is above 40 µM. In addition, in test [10], the “early gametocyte imaging, no activity at” value was above 40 µM. For the same molecule, the EC50 turned out to be 2 nM in [1] (setting [13]) and 7200 nM in test [1] (setting [14]).
For the molecule `Oc1cc(Cl)ccc1Oc1ccc(Cl)cc1Cl` [triclosan, reference compound], the figures for the “C. velia flagellation score” value in test [11] (0.1 µM) and in test [11] (1µM) were “+” and 0, respectively.
With `COc1ccc2nc3cc(Cl)ccc3c(Nc3cc(CN4CCCC4)c(O)c(CN4CCCC4)c3)c2n1` [pyronaridine], the EC50 in [1] (setting [13]) turned out to be 3 nM; in test [1] (setting [14]) it was 5 nM.

The record behind these values is publication PMC4965013, “Open Source Drug Discovery with the Malaria Box Compound Collection for Neglected Diseases and Beyond” (PLoS Pathogens, 2016).
